Patent EP2072050A1, “Compounds with anti-emetic effect” (Santhera Pharmaceuticals (Schweiz) AG, priority 2007, dated 2009)
Several values for one entry are separate records, joined by “and”; a condition that tells them apart may be missing. Equal values may be shown once.

Columns and labels:
[1] = test system: cisplatin induced emesis in the ferret; experiment: cisplatin-induced emesis in the ferret; type: in vivo; details: for anti-emetic effect (in words): emesis model in the ferret, compound A 30 and 100 mg/kg, ondansetron 16 mg/kg; for Number of Emesis periods / Number of Retches / Number of Vomits: 3 h observation
From the text: The preferred model to assess an anti emetic potential in animals is the cisplatin-induced emesis in the ferret in which the effects of 5HT3A and NK1 antagonists have been thoroughly investigated. The method, which detects antiemetic activity, follows that described by Gardner et al (Brit. J. Pharmacol., 116, 3158-3163, 1995).
Sixty minutes before administration of the test substance, ferrets are placed in individual stainless steel cages (40 x 50 x 34 cm) with a grid floor. Then, the animals are challenged with cisplatin (10 mg/kg i.p.), and immediately observed over a 3-hour period for: • Number of ferrets showing retches and vomits; • Latency to first retching (h:min:s); • Latency to first vomiting (h:min:s); • Retching (number of retches); • Vomiting (number of vomits); • Number of emesis periods; • Mean duration of emesis periods (min:s); • Severe behavioral side effects. Retching is defined as a rhythmic respiratory movement against a closed glottis, while vomiting is defined as a forced expulsion of upper gastrointestinal contents.
The assay as described above was used to evaluate the anti emetic effects of melanocortin-4 receptor antagonists.
Eight ferrets were studied per group. The test substance was evaluated at two doses (30 and 100 mg/kg), administered p.o. 90 minutes before cisplatin, and compared with an appropriate vehicle control group (vehicle administered 90 minutes before cisplatin).
Quantitative data was analyzed by comparing treated groups with vehicle control using unpaired Student's t tests.
Comparison between treated groups and vehicle control was done using Mann-Whitney U tests.

MC-4 receptor = MC-4 receptor (Homo sapiens, UniProt P32245); experiment: block of the MC-4 receptor (internal finding, no method given)
[2] = group mean (8 ferrets), Compound A 30 mg/kg p.o. 1.5 h before cisplatin 10 mg/kg i.p.
[3] = group mean (8 ferrets), Compound A 100 mg/kg p.o. 1.5 h before cisplatin 10 mg/kg i.p.
[4] = individual animal, Compound A 30 mg/kg p.o. 1.5 h before cisplatin 10 mg/kg i.p.
[5] = individual animal, Compound A 100 mg/kg p.o. 1.5 h before cisplatin 10 mg/kg i.p.
[6] = group mean (8 ferrets), Ondansetron 16 mg/kg p.o. 1 h before cisplatin 10 mg/kg i.p.
[7] = individual animal, Ondansetron 16 mg/kg p.o. 1 h before cisplatin 10 mg/kg i.p.

Chain of MC-4 receptor (P32245 whole entry): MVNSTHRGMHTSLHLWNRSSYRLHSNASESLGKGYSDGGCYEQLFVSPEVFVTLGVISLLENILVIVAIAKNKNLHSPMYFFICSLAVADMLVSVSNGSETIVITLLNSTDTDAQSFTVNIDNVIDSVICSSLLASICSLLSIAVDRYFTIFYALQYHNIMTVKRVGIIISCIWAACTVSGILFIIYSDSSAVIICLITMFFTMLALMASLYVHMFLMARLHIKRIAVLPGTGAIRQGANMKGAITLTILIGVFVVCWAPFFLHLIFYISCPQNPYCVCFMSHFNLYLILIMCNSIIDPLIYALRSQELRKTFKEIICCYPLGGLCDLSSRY

CC[C@H](COc1cccnc1C1CCN(C(=O)[C@@H](Cc2ccc(Cl)cc2Cl)NC(=O)N2CCCC2)CC1)N1CCCC1 [Compound A]
anti-emetic effect (in words) [1]: pronounced anti-emetic properties | Number of Emesis periods [1, 2]: 6.4 | Number of Retches [1, 2]: 64.4 | Number of Vomits [1, 2]: 2.4 | Number of Emesis periods [1, 3]: 2.3 | Number of Retches [1, 3]: 19.9 | Number of Vomits [1, 3]: 0.8 | Number of Emesis periods [1, 4]: 14 and 4 and 7 and 0 (2×) and 3 and 13 and 10 | Number of Retches [1, 4]: 156 and 26 and 90 and 0 (2×) and 41 and 118 and 84 | Number of Vomits [1, 4]: 9 and 0 (3×) and 2 (2×) and 1 and 5 | Number of Emesis periods [1, 5]: 5 and 0 (4×) and 1 and 8 and 4 | Number of Retches [1, 5]: 28 and 0 (4×) and 10 and 83 and 38 | Number of Vomits [1, 5]: 2 (3×) and 0 (5×)

Cc1nccn1CC1CCc2c(c3ccccc3n2C)C1=O (stereo not shown) [Ondansetron, ondansetron, reference compound]
anti-emetic effect (in words) [1]: clear anti-emetic effect | Number of Emesis periods [1, 6]: 5.0 | Number of Retches [1, 6]: 41.1 | Number of Vomits [1, 6]: 1.9 | Number of Emesis periods [1, 7]: 0 (4×) and 14 (2×) and 3 and 9 | Number of Retches [1, 7]: 0 (4×) and 113 and 26 and 56 and 134 | Number of Vomits [1, 7]: 0 (5×) and 2 and 6 and 7 | block of the MC-4 receptor (MC-4 receptor): doesn't block | separation between 5HT3 and MC-4 (MC-4 receptor): more than 10000 fold
